“And” between values parts separate entries of the source, which are not always exact repeats. Equal entries are not always repeated. Where two headings read alike, the source gives them in different places.
What was measured:
FMDV serotype A [1] = assay type: cell-based, A/TAI/NP05/2016 (NP05)
FMDV 3C^pro = FMDV 3C^pro (Foot-and-mouth disease virus, UniProt P03306); test: cell-based; settings: for IC90: HEK-293T
[2] = tested on: IFN-antagonist activity of FMDV 3C^pro; assay type: cell-based, human
FMDV [3] = assay type: cell-based, FMDV serotype A, A/TAI/NP05/2016 (NP05)
FMDV [4] = assay type: cell-based, FMDV serotype A, A/TAI/NP05/2016 (NP05); remark: listed apart in the source
BHK-21 cells = settings: hamster
FMDV serotype A [5] = tested on: FMDV serotype A
hepatitis B virus = settings: cited from earlier work
chikungunya virus = settings: cited from earlier work
in vitro [6] = settings: hamster
in vitro [7] = settings: human
FMDV serotype A [8] = test: organism not typed; settings: BHK-21

Sequence of FMDV 3C^pro (P03306 1650-1862 limits assumed): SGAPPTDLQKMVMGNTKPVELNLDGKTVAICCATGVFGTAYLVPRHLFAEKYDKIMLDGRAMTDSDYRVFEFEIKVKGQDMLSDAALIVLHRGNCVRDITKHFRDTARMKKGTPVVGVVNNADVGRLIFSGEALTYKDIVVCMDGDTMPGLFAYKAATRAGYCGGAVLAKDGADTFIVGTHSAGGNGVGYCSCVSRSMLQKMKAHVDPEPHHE

Row | Compound | Viral nucleic acids (viral copy numbers) (FMDV serotype A [1]) | IC50 (FMDV 3C^pro) [µM] | IC90 (FMDV 3C^pro) [µM] | Effect on IFN-antagonist activity of 3C^pro [2] | ISG15 mRNA expression [2] | ISG56 mRNA expression [2] | Mx-1 mRNA expression [2] | PKR mRNA expression [2] | Extracellular virucidal activity (FMDV [3]) | Protection activity (FMDV [4]) | CC10 (BHK-21 cells) [µM] | SI (CC50/EC50) (FMDV serotype A [5]) | EC50 (hepatitis B virus) [µM] | EC50 (chikungunya virus) | CC50 (in vitro [6]) [µM] | CC50 (in vitro [7]) [µM] | EC50 (FMDV serotype A [8]) [µM] | OAS-1 mRNA expression [2] | CC50 (BHK-21 cells) [µM] | EC50 (FMDV serotype A [5]) [µM]
1 | C=C1CC[C@@H]2[C@](C)(CO)[C@H](O)CC[C@@]2(C)[C@@H]1C/C=C1/C(=O)OC[C@H]1O [AGL, andrographolide] | significantly decreased | 67.4 ± 0.81 | 267.2 ± 2.43 | significantly derepressed the IFN-antagonist activity of the 3C^pro | 52.93 fold-changes and 59.99 fold-changes | 72.73 fold-changes and 107.66 fold-changes | 5.33 fold-changes and 6.98 fold-changes | 6.22 fold-changes and 6.12 fold-changes | neither extracellular virucidal nor protection activities | neither extracellular virucidal nor protection activities | 94.55 ± 0.02 | 2.23 | 54.1 | 77.4 µM and 88 µM | 116.8 ± 0.03 | 453 ± 0.04 | 52.18 ± 0.01 |  |  | 
2 | C=C1CC[C@@H]2[C@](C)(CO)[C@H](O)CC[C@@]2(C)[C@@H]1CCC1=CCOC1=O [DAG, deoxyandrographolide] | significantly decreased | 25.6 ± 1.41 | 123 ± 2.09 | significantly derepressed the IFN-antagonist activity of the 3C^pro | 62.36 fold-changes and 64.43 fold-changes | 84.77 fold-changes and 77.60 fold-changes | 14.37 fold-changes and 13.04 fold-changes | 11.65 fold-changes and 12.84 fold-changes | neither extracellular virucidal nor protection activities | neither extracellular virucidal nor protection activities | 81.05 ± 0.01 |  |  |  | 211.5 ± 0.03 | 651.4 ± 0.32 | 36.47 ± 0.07 | 250.25 fold-changes and 244.76 fold-changes | 332.3 ± 0.09 | 
3 | C=C1CC[C@@H]2[C@](C)(CO[C@@H]3O[C@H](CO)[C@@H](O)[C@H](O)[C@H]3O)CCC[C@@]2(C)[C@@H]1CCC1=CCOC1=O [NEO, neoandrographolide] | reduced viral replication to a lesser extent | 111 ± 2.04 | 635.8 ± 2.9 | could not reduce the IFN suppression by 3C^pro | 37.58 fold-changes and 32.91 fold-changes | 62.33 fold-changes and 55.39 fold-changes | 2.19 fold-changes and 4.00 fold-changes | 3.65 fold-changes and 1.99 fold-changes | neither extracellular virucidal nor protection activities | neither extracellular virucidal nor protection activities | 149.94 ± 0.21 | 0.38 |  |  | 332.3 ± 0.09 | 914.2 ± 0.04 | > 500 | 106.88 fold-changes and 163.69 fold-changes | 211.5 ± 0.03 | 542.4 ± 0.2

From paper PMC9367459 (Animals : an Open Access Journal from MDPI, 2022)
